Drawing on patent US20210038607A1, “OXADIAZOLYLTHIOPHENE DERIVATIVES USEFUL AS HISTONE DEACETYLASE INHIBITORS” (Karus Therapeutics Limited, priority 2018, published 2021), this text covers IC50 for ten molecules.

The structures appear in SMILES notation. Some results are limits rather than exact numbers.

Experiment [1] addresses T1, Human HDAC5 (Homo sapiens, UniProt Q9UQL6).
T1 construct: full length with C-terminal His tag, MW=51.1 kDa; His (C); host or cells: baculovirus expression system
Nature of the experiment: HDAC5 biochemical assay, class IIa-specific substrate. The settings on record: read-out: HDAC Isoform IC50 (nM) 5. Put shortly:
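Two-step fluorogenic read-out: deacetylated trifluoroacetyl-lysine AMC substrate (50 μM) digested by developer, measured at Ex/Em 360/460. Deacetylation step: 0.05 ng/ul His-tagged full-length baculoviral enzyme with compound, 30 min, room temperature, pH 8.0 Tris with 1 mg/mL BSA and 1% DMSO.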

The target of experiment [2] is T2, Human HDAC9 (Homo sapiens, UniProt Q9UKV0).
T2 construct: amino acids 604-1066 with C-terminal His tag; His (C); host or cells: baculovirus expression system
The experiment is described as follows: HDAC9 biochemical assay, class IIa-specific substrate. The note with it: read-out: HDAC Isoform IC50 (nM) 9. In short, it runs like this: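 HDAC9 residues 604-1066 (C-terminal His tag, baculovirus-expressed) at 0.06 ng/ul with 50 μM class IIa substrate Boc-Lys(trifluoroacetyl)-AMC in Tris-HCl pH 8.0 buffer with BSA and 1% DMSO. 30 min at room temperature, then developer added; fluorescence read at 360/460 nm Ex/Em.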

Experiment [3] addresses T3, Human HDAC4 (Homo sapiens, UniProt P56524).
T3 construct: amino acids 627-1085 with N-terminal GST tag; GST (N); host or cells: baculovirus expression system
Nature of the experiment: HDAC4 biochemical assay, class IIa-specific substrate. The note with it: read-out: HDAC Isoform IC50 (nM) 4. In short, it runs like this: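 Two-step fluorogenic read-out: deacetylated BOC-Lys(trifluoroacetyl)-AMC (50 μM) was digested by developer and measured at Ex/Em 360/460. Deacetylation by 0.004 ng/ul HDAC4 (aa 627-1085, N-terminal GST) ran 30 min at room temperature, pH 8.0 Tris buffer, 1 mg/mL BSA, 1% DMSO.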

The target of experiment [4] is T4, Recombinant human HDAC6 (Homo sapiens, UniProt Q9UBN7).
T4 construct: full length, MW=159 kDa; GST (N); host or cells: Sf9 insect cells (baculovirus)
T4 sequence (Q9UBN7 1-1215): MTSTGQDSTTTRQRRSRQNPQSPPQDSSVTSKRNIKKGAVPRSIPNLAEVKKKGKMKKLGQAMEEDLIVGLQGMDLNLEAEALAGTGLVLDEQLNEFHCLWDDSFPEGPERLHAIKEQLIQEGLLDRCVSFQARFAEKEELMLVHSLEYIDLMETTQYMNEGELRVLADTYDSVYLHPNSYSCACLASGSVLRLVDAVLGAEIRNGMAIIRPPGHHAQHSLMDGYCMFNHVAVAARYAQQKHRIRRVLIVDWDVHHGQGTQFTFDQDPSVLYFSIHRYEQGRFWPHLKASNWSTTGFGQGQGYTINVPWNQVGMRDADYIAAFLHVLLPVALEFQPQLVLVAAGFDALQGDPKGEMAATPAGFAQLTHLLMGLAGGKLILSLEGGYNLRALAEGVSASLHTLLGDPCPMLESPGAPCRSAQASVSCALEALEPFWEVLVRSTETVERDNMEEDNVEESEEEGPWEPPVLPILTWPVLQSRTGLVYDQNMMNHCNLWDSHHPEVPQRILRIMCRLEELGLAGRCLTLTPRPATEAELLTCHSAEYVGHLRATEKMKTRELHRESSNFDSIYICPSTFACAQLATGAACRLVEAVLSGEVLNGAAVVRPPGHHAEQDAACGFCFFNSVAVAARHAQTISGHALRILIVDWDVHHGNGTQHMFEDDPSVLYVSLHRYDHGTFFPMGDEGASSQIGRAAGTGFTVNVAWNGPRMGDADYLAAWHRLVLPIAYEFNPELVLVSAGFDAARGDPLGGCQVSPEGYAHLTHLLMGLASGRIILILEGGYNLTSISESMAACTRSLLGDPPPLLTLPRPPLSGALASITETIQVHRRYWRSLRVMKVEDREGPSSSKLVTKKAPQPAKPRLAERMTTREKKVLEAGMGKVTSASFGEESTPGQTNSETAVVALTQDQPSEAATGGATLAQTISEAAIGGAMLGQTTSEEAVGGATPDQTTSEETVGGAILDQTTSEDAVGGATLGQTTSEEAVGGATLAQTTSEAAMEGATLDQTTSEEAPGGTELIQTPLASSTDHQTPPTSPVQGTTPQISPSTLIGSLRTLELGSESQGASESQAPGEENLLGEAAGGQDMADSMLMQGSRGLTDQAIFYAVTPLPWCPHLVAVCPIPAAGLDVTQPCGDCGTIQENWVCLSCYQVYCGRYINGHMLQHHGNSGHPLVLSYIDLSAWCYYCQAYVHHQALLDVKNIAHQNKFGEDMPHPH
The experiment is described as follows: HDAC6 biochemical assay, AMC-labeled peptide substrate. The note with it: HDAC6; read-out: HDAC Isoform IC50 (nM) 6. In short, it runs like this: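 Two-step fluorogenic read-out: enzyme deacetylates 50 μM RHKK(Ac)AMC for 1 h at 30° C in pH 8.0 Tris buffer with BSA and 1% DMSO, then developer cleavage gives signal at Ex 360/Em 460. Enzyme: 0.3 ng/ul recombinant full-length human HDAC6, GST-tagged, Sf9-expressed.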

In experiment [5] the target is T5, Human HDAC1 (Homo sapiens, UniProt Q13547).
T5 construct: full length with C-terminal His-tag and C-terminal FLAG-tag; His (C); FLAG (C); host or cells: baculovirus expression system
Nature of the experiment: HDAC1 biochemical assay, AMC-labeled peptide substrate. The note with it: read-out: HDAC Isoform IC50 (nM) 1. Put shortly:
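Two-step fluorogenic read: HDAC1 deacetylates 50 μM acetyl-lysine AMC peptide RHKK(Ac)AMC for 1 h at 30° C (pH 8.0, 1% DMSO, with compound), then developer digests the product for fluorescence at Ex/Em 360/460. Enzyme is full-length human, His/FLAG-tagged, insect-cell expressed, at 0.3 ng/ul.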

Experiment [6] addresses T6, Human HDAC7 (Homo sapiens, UniProt Q8WUI4).
T6 construct: (a.a. 518-end) with N-terminal GST tag; GST (N); host or cells: baculovirus expression system
T6 sequence (Q8WUI4 518-952 limits assumed): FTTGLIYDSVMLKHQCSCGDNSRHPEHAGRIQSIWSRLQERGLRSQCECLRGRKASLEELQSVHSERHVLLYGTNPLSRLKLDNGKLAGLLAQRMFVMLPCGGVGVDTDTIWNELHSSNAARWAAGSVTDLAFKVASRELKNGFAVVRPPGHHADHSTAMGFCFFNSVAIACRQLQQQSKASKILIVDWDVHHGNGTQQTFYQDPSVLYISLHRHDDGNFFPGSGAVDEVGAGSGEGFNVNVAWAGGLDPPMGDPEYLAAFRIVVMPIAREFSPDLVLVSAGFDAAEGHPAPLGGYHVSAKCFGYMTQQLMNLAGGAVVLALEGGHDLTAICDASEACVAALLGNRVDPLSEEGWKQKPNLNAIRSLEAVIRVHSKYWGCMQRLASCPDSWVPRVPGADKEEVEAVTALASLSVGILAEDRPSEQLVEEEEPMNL
The experiment is described as follows: HDAC7 biochemical assay, class IIa-specific substrate. The note with it: read-out: HDAC Isoform IC50 (nM) 7. Put shortly: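 Two-step fluorogenic readout: class IIa-selective trifluoroacetyl-lysine AMC substrate (50 μM) deacetylated by N-terminal GST-HDAC7 fragment (0.001 ng/ul), then digested by developer, Ex/Em 360/460. Reaction: 30 min, room temperature, Tris-HCl pH 8.0, NaCl/KCl/MgCl2, 1 mg/mL BSA, 1% DMSO.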

T3 sequence (P56524 627-1084 limits assumed): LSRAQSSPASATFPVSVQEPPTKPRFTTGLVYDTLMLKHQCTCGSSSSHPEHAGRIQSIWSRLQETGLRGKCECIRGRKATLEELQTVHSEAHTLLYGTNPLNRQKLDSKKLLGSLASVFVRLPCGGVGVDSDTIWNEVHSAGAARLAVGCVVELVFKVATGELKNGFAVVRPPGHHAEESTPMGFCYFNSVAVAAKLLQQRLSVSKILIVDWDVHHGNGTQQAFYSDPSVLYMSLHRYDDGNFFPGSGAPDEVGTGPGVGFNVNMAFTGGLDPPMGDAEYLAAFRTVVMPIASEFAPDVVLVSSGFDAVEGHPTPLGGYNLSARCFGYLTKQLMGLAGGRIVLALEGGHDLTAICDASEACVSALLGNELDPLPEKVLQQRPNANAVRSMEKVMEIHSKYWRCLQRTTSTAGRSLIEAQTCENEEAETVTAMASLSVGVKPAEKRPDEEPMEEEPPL
T5 sequence (Q13547 whole entry): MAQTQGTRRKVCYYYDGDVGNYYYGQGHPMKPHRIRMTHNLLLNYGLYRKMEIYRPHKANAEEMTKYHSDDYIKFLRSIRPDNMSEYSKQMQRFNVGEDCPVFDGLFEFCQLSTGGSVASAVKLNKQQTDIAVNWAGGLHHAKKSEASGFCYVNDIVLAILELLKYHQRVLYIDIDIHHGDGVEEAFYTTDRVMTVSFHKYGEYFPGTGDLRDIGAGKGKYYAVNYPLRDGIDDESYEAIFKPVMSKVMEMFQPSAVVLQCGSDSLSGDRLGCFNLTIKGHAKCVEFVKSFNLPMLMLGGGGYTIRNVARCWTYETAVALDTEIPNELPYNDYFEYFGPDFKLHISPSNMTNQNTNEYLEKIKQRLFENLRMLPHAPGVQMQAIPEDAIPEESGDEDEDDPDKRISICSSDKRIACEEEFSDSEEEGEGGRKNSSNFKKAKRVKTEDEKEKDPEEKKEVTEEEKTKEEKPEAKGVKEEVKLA
T2 sequence (Q9UKV0 604-1066 isoform Q9UKV0-5): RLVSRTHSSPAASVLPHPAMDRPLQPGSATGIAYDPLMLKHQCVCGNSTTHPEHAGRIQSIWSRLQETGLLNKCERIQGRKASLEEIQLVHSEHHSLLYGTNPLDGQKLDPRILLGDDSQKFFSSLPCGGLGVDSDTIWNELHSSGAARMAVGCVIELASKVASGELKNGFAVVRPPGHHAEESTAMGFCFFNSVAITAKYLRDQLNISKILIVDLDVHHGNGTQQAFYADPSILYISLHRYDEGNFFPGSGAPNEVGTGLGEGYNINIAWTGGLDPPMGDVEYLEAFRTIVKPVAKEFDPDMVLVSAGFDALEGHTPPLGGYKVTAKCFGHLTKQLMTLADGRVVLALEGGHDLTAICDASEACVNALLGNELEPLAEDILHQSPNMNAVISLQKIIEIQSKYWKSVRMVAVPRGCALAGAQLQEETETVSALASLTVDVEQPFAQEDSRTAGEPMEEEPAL
T1 sequence (Q9UQL6 656-1122 limits assumed): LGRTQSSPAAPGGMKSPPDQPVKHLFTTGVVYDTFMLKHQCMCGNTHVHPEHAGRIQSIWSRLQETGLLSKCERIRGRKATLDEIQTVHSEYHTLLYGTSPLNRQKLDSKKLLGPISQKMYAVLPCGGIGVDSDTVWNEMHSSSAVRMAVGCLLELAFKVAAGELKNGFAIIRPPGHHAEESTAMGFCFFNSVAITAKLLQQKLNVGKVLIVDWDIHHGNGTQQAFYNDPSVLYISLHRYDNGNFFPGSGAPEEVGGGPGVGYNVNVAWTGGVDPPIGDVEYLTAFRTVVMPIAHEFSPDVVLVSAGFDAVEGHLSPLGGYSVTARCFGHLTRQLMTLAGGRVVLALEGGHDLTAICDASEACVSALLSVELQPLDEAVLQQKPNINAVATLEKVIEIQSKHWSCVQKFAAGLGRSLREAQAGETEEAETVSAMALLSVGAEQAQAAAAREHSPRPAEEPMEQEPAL

Usually IC50 stands for the concentration that inhibits the measured activity by half. Take `FC(F)(F)c1nc(-c2ccc(CN(c3cnccn3)c3ccc4nccnc4n3)s2)no1` [Example Z, N-{Pyrido[2,3-b]pyrazin-6-yl}-N-({5-[5-(trifluoromethyl)-1,2,4-oxadiazol-3-yl]thiophen-2-yl}methyl)pyrazin-2-amine]: the IC50 in experiment [1] was not above 1000 nM; in experiment [2], not above 10000 nM; in experiment [3] it was not above 1000 nM; in experiment [4], not above 1000 nM; in experiment [5], more than 10000 nM; in experiment [6] it was not above 1000 nM.
As to `Cc1cc(N(Cc2ccc(-c3noc(C(F)(F)F)n3)s2)c2cnccn2)ncn1` [Example CG, 6-Methyl-N-(pyrazin-2-yl)-N-({5-[5-(trifluoromethyl)-1,2,4-oxadiazol-3-yl]thiophen-2-yl}methyl)pyrimidin-4-amine], the IC50 in experiment [1] is not above 1000 nM; in experiment [2], not above 10000 nM; in experiment [3], not above 10000 nM; in experiment [4], not above 1000 nM; in experiment [5], more than 10000 nM; in experiment [6] it was not above 10000 nM.
For `FC(F)(F)c1cc(N(Cc2ccc(-c3noc(C(F)(F)F)n3)s2)c2cnccn2)ncn1` [Example CJ, N-(Pyrazin-2-yl)-6-(trifluoromethyl)-N-({5-[5-(trifluoromethyl)-1,2,4-oxadiazol-3-yl]thiophen-2-yl}methyl)pyrimidin-4-amine], the IC50 was not above 10000 nM in experiment [1]; not above 10000 nM in experiment [2]; not above 10000 nM in experiment [3]; not above 10000 nM in experiment [4]; more than 10000 nM in experiment [5]; not above 10000 nM in experiment [6].
For `FC(F)(F)c1nc(-c2ccc(CN(c3ccc(N4CCOCC4)cn3)c3cnccn3)s2)no1` [Example AD, N-[5-(Morpholin-4-yl)pyridin-2-yl]-N-({5-[5-(trifluoromethyl)-1,2,4-oxadiazol-3-yl]thiophen-2-yl}methyl)pyrazin-2-amine], the IC50 in experiment [1], in experiment [2], in experiment [3], in experiment [4], in experiment [5] and in experiment [6] was not above 10000 nM throughout.
As for `CN(C)c1nccc(N(Cc2ccc(-c3noc(C(F)(F)F)n3)s2)c2cnccn2)n1` [Example CC, N2,N2-Dimethyl-N4-(pyrazin-2-yl)-N4-({5-[5-(trifluoromethyl)-1,2,4-oxadiazol-3-yl]thiophen-2-yl}methyl)pyrimidine-2,4-diamine], the IC50 in experiment [1] was not above 10000 nM; in experiment [2], not above 10000 nM; in experiment [3], not above 10000 nM; in experiment [4], not above 10000 nM; in experiment [5], more than 10000 nM; in experiment [6] it was not above 10000 nM.
In the case of `Cc1cnc(N(Cc2ccc(-c3noc(C(F)(F)F)n3)s2)c2cnccn2)c(C)n1` [Example BV, 3,5-Dimethyl-N-(pyrazin-2-yl)-N-({5-[5-(trifluoromethyl)-1,2,4-oxadiazol-3-yl]thiophen-2-yl}methyl)pyrazin-2-amine], the IC50 in experiment [1] is not above 500 nM; in experiment [2], not above 1000 nM; in experiment [3], not above 500 nM; in experiment [4] it was not above 10000 nM; in experiment [5], more than 10000 nM; in experiment [6], not above 1000 nM.
For `FC(F)(F)c1nc(-c2ccc(CN(c3cnccn3)c3nccc4ncccc34)s2)no1` [Example AJ, N-(Pyrazin-2-yl)-N-({5-[5-(trifluoromethyl)-1,2,4-oxadiazol-3-yl]thiophen-2-yl}methyl)-1,6-naphthyridin-5-amine], the IC50 is not above 10000 nM in experiment [1]; not above 10000 nM in experiment [2]; not above 10000 nM in experiment [3]; not above 10000 nM in experiment [4]; more than 10000 nM in experiment [5]; not above 10000 nM in experiment [6].
As to `FC(F)(F)c1cnnc(N(Cc2ccc(-c3noc(C(F)(F)F)n3)s2)c2cccnc2)c1` [Example EI, N-(Pyridin-3-yl)-5-(trifluoromethyl)-N-({5-[5-(trifluoromethyl)-1,2,4-oxadiazol-3-yl]thiophen-2-yl}methyl)pyridazin-3-amine], the IC50 in experiment [1] is not above 1000 nM; in experiment [2], not above 10000 nM; in experiment [3], not above 10000 nM; in experiment [4], not above 10000 nM; in experiment [5] it was more than 10000 nM; in experiment [6], not above 10000 nM.
Turning to `FC(F)(F)c1ccc(N(Cc2ccc(-c3noc(C(F)(F)F)n3)s2)c2cnccn2)nc1` [Example AB, N-({5-[5-(Trifluoromethyl)-1,2,4-oxadiazol-3-yl]thiophen-2-yl}methyl)-N-[5-(trifluoromethyl)pyridin-2-yl]pyrazin-2-amine], the IC50 in experiment [1] is not above 10000 nM; in experiment [2], not above 10000 nM; in experiment [3], not above 10000 nM; in experiment [4], not above 10000 nM; in experiment [5] it was more than 10000 nM; in experiment [6], more than 10000 nM.
As for `Cc1cnc(N(Cc2ccc(-c3noc(C(F)(F)F)n3)s2)c2cnccn2)nc1` [Example AW, 5-Methyl-N-(pyrazin-2-yl)-N-({5-[5-(trifluoromethyl)-1,2,4-oxadiazol-3-yl]thiophen-2-yl}methyl)pyrimidin-2-amine], the IC50 is not above 10000 nM in experiment [1]; not above 10000 nM in experiment [2]; not above 10000 nM in experiment [3]; not above 10000 nM in experiment [4]; more than 10000 nM in experiment [5]; not above 10000 nM in experiment [6].
